Measurements published in patent publication EP0795330A1, “Medicament for the treatment of insomnia” (ELI LILLY AND COMPANY, priority 1996, dated 1997).

Columns and labels:
[1] = detection of radiolabelled olanzapine in saliva; assay type: in vivo, patients
Description: For example, in the treatment of adult humans, dosages of from 5 to 25 mg per day may be used. A once a day dosage is normally sufficient. For treatment of insomnia, a dose range of from 5 to 100 mg, is suitable, while a dosage of from 5 to 25 mg per day is preferred.

5-HT1C receptor = molecular target: T1, 5-HT1C receptor (Homo sapiens, UniProt P28335); assay: pharmacological studies, 5-HT1C receptor activity
T1 sequence (P28335 33-458): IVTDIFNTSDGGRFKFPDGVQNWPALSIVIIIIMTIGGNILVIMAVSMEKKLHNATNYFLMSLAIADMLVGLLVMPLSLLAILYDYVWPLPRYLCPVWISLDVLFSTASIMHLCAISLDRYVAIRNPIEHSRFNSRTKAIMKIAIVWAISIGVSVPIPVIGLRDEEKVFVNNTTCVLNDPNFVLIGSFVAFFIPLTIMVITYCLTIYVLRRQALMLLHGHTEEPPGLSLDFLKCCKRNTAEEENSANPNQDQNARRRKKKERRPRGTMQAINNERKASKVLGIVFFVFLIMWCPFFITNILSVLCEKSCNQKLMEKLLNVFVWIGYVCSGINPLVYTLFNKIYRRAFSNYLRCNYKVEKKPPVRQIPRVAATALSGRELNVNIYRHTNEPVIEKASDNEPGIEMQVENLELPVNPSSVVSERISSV

With `Cc1cc2c(s1)Nc1ccccc1N=C2N1CCN(C)CC1` [olanzapine, 2-methyl-4-(4-methyl-l-piperazinyl)-10H-thieno[2,3-b][1,5] benzodiazepine] the “detection in the saliva” value [1] was “can be detected in the saliva” and the “activity at the 5-HT1C receptor” value (5-HT1C receptor) was “active”.
